{"source": "patent US20260184669A1", "about": "“LIPID COMPOUND AND COMPOSITION FOR DELIVERY OF ACTIVE SUBSTANCE” (KOREA RESEARCH INSTIUTE OF BIOSCIENCE AND BIOTECHNOLOGY, priority 2022, published 2026)", "key": {"[1]": {"test": "Apparent pKa of mRNA-LNP by TNS binding assay", "type": "physicochemical", "conditions": "apparent pKa of mRNA-LNP made with the ionizable lipid", "method": "The apparent pKa of the mRNA-LNPs prepared according to Example 27 was determined by analysis using 6-(p-toluidino)-2-naphthalenesulfonic acid sodium salt (TNS; Sigma-Aldrich, USA).\nHowever, as the pH decreases, the proportion of positively charged ionizable lipids increases, allowing electrostatic interactions with TNS. […] When the pH of the solution increases and the ionizable lipids become neutralized, TNS can no longer engage in electrostatic interactions. Consequently, TNS loses its lipophilic character, exits the hydrophobic domain, and its fluorescence is quenched. Based on this principle, the pKa of LNPs can be measured by plotting the change in TNS fluorescence intensity in response to variations in the surrounding pH as an S-shaped curve, and calculating the […] of the inflection point. […]\nSpecifically, a master buffer was prepared containing 10 mM sodium phosphate, 10 mM sodium borate, 10 mM sodium citrate, and 150 mM sodium chloride (NaCl). […] After gently mixing the contents of each well, the fluorescence intensity was measured using a multiplate reader (Cary Eclipse, Agilent Technologies, USA) at an excitation wavelength of λex 330 nm and an emission wavelength of λem 435 nm."}, "[2]": {"test": "Size, polydispersity index and surface charge of mRNA-LNP (Malvern Zetasizer Nano ZS90)", "type": "physicochemical", "summary_of_the_method": "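Dynamic/electrophoretic light scattering of LNPs diluted in PBS to a final mRNA concentration of 1 μg/mL. Readouts were particle size, PDI and surface charge.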"}, "[3]": {"test": "mRNA encapsulation efficiency (Quant-IT RiboGreen RNA assay)", "type": "physicochemical", "conditions": "mRNA encapsulation efficiency of mRNA-LNP made with the ionizable lipid; average of two measurements", "summary_of_the_method": "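LNP samples read with RiboGreen reagent in TE buffer with or without 2% Triton X-100 (37 °C, 10 min) to release encapsulated mRNA. Fluorescence at λex 480/λem 520 nm; EE % calculated from the two readings, averaged over two independent measurements.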"}, "[4]": {"system": "female C57BL/6 mice", "test": "Protein expression efficiency of fLuc mRNA-LNPs after intramuscular injection (IVIS whole-body luminescence)", "type": "in vivo", "conditions": "fLuc mRNA-LNP, intramuscular injection, luminescence at injection site, mice", "summary_of_the_method": "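Female C57BL/6 mice (6-10 weeks, n≥4) got intramuscular fLuc mRNA-LNPs at 0.1-0.5 mg/kg mRNA. Injection-site luminescence was imaged under isoflurane at 1-72 h, 10 min after i.p. D-luciferin (200 μL, 15 mg/mL). Expression at 3 h was taken relative to MC3 or SM-102 LNPs.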"}, "[5]": {"system": "CCL3 mRNA level in HEK-293T cells"}, "[6]": {"system": "IL-1β mRNA level in HEK-293T cells"}}}
{"smiles": "CCCCC/C=C\\C/C=C\\CCCCCCCCC(CCCCCCCC/C=C\\C/C=C\\CCCCC)OC(=O)CCCN(C)C", "note": "[MC3, DLin-MC3-DMA, reference compound]", "values": [{"measurement": "PKa", "setting": "[1]", "value": 6.14}, {"measurement": "PDI", "setting": "[2]; mRNA-LNP made with the ionizable lipid at its optimal formulation (Table 2)", "value": 0.174}, {"measurement": "size (nm) Number", "setting": "[2]; mRNA-LNP made with the ionizable lipid at its optimal formulation (Table 2), diluted with PBS to 1 μg/mL mRNA", "value": 93, "unit": "nm"}, {"measurement": "Zeta (mV)", "setting": "[2]; surface charge of mRNA-LNP made with the ionizable lipid at its optimal formulation (Table 2)", "value": "−2.65", "unit": "mV"}, {"measurement": "EE (%)", "setting": "[3]", "value": 95, "unit": "%"}, {"measurement": "Total flux 1 hour", "setting": "[4]; 1 hour after administration", "value": "1.20E+06"}, {"measurement": "Total flux 3 hours", "setting": "[4]; 3 hours after administration", "value": "1.24E+07"}, {"measurement": "Total flux 6 hours", "setting": "[4]; 6 hours after administration", "value": "1.78E+07"}, {"measurement": "Total flux 48 hours", "setting": "[4]; 48 hours after administration", "value": "8.41E+05"}, {"measurement": "Total flux 72 hours", "setting": "[4]; 72 hours after administration", "value": "3.89E+05"}, {"measurement": "Total flux", "setting": "[4]; after administration", "value": "1.03E+06"}, {"measurement": "CCL3 Average", "setting": "[5]", "value": 1.86}, {"measurement": "IL-1β Average", "setting": "[6]", "value": 1.46}]}
